This note sets out measurements from patent US8829024B2, “Combination steroid and glucocorticoid receptor antagonist therapy” (Corcept Therapeutics, Inc., priority 2011, dated 2014).

The subject of assay [1] is GR induced transrepression (LPS activated TNFα release). Description: Glucocorticosteroid transrepression assay (LPS activated TNFα release in peripheral blood mononuclear cells). It counts as cell-based. The settings on record: human PBMC, 10 ng/ml LPS; for blockade of dexamethasone induced repression of LPS activated TNFα release (antagonism of transrepression): in presence of 50 nM dexamethasone, FIG. 1b. The method, then: Using a cell-based model (human peripheral blood mononuclear cells), dexamethasone was administered to the cells and the release of TNFα was measured. After addition of the GR modulator of the present invention, the release of TNFα was again measured and compared to the amount released in the absence of the GR modulator.
Human peripheral blood mononuclear cells were isolated and distributed in 96-well plates at a density of 2×10^5 cells/well in medium. Compounds were tested at 7 concentrations (semi-log dilutions) and prepared at 5× final assay concentration in 1.5% DMSO. Following a preincubation of 30 minutes with compounds the plates are then incubated in presence of 50 nM dexamethasone or media for 30 minutes. TNFα release was activated by overnight incubation with 10 ng/ml LPS. Human TNFα was measured using chemiluminescence detected on the SECTOR® Imager 6000 (Mesoscale). Dexamethasone was used to inhibit LPS activated TNFα release via the glucocorticoid receptor. […] In some cases, CORT-108297 was added in the absence of dexamethasone to determine if CORT-108297 inhibited LPS activated TNFα release.

Assay [2] has as its system GR induced transactivation (tyrosine amino transferase expression). Description: Glucocorticosteroid transactivation assay (tyrosine amino transferase expression in primary hepatocytes). Conditions: human liver hepatocytes; for inhibition of dexamethasone induced expression of tyrosine amino transferase (antagonism of GR induced transactivation): in presence of 50 nM dexamethasone, FIG. 2b. It counts as cell-based. From the text: GR modulators of the present invention that inhibit GR induced transactivation can be identified by measuring the amount of tyrosine amino transferase expressed in the presence of the GR induced transactivation in a cell model (human liver hepatocytes).
In this example, dexamethasone induces the expression of tyrosine amino transferase by transactivation. Typically, glucocorticosteroids, such as the synthetic dexamethasone, bind the ligand-binding domain of the glucocorticoid receptor (GR) to promote nuclear translocation. In the nucleus, the DNA binding domain directs dimerization on imperfect DNA palindromes known as simple glucocorticoid response elements (GREs) to transcriptionally activate genes including tyrosine amino transferase (TAT).
Primary hepatocytes were distributed in 96-well collagen coated plates and equilibrated in media (without hydrocortisone) for 6 hours. Compounds were tested at 6 concentrations (semi-log dilutions) and prepared in 0.2% DMSO in the presence of 50 nM dexamethasone or media. Hepatocytes in the presence of compound were incubated for 24 hours, washed in PBS and lysed for 30 minutes (30 μl lysis volume). The TAT enzyme assay was initiated by the addition of 170 μl TAT assay buffer (substrate) for 1 hour. The reaction was terminated by the addition of 30 μl 10N KOH and the 96-well plates incubated for a further 30 min […] to allow formation of the aromatic aldehyde product, p-hydroxybenzaldehyde. Absorbance was read at 340 nm on a spectrophotometer.
Reagents: TAT assay buffer: 0.2 M KH2PO4 pH7.4 containing 5.4 mM L-tyrosine, 10.8 mM α-ketoglutaric acid and 0.06 mM Pyridoxal-5-phosphate monohydrate.
Dexamethasone was used to increase the expression of tyrosine amino transferase in human liver hepatocytes.

For `CCOC[C@]12Cc3cnn(-c4ccc(F)cc4)c3C=C1CCN(S(=O)(=O)c1ccc(C(F)(F)F)cc1)C2` [CORT-108297], in assay [1] (FIG. 1a), the “inhibition of LPS activated TNFα release, compound alone (transrepression agonism), in words” value is “weak partial agonist of GR induced transrepression”. For the same compound, the “maximal inhibition of LPS activated TNFα release, compound alone” value in assay [1] (at micromolar concentrations, no dexamethasone, FIG. 1a) worked out at 48%. In addition, the “blockade of dexamethasone induced repression of LPS activated TNFα release (antagonism of transrepression)” value in assay [1] is on record as “only shows partial blockade at higher concentrations”. Further, the “expression of tyrosine amino transferase (increase), compound alone” value in assay [2] (all concentrations assayed, no dexamethasone, FIG. 2a) is ≤ 0%. Besides, the “inhibition of dexamethasone induced expression of tyrosine amino transferase (antagonism of GR induced transactivation)” value in assay [2] is on record as “full potent antagonist of GR induced transactivation”.
Take `C[C@@H]1C[C@H]2[C@@H]3CCC4=CC(=O)C=C[C@]4(C)[C@@]3(F)[C@@H](O)C[C@]2(C)[C@@]1(O)C(=O)CO` [dexamethasone, reference compound]: the “concentration giving maximal increase in TAT expression (transactivation)” value in assay [2] (compound alone, FIG. 2a) is recorded as “about 100 nM”.
For the compound `CC#C[C@]1(O)CC[C@H]2[C@@H]3CCC4=CC(=O)CCC4=C3[C@@H](c3ccc(N(C)C)cc3)C[C@@]21C` [mifepristone, reference compound], the “blockade of dexamethasone induced repression of LPS activated TNFα release (antagonism of transrepression)” value in assay [1] is on record as “completely blocks this effect”. Further, the “inhibition of dexamethasone induced expression of tyrosine amino transferase (antagonism of GR induced transactivation)” value in assay [2] was “inhibit the increased expression of tyrosine amino transferase”.
